Measurements: the supplement of paper PMC10307832

Columns and labels:
Assay in all cases: relative viability (nuclei count vs DMSO), 5 days (fraction); higher = more cells survive
NCI-H2170 = system: NCI-H2170
Method in brief: (§1)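 Medians of duplicate plates are given as relative viability. That measure is the nuclei count in treated wells divided by the count in vehicle wells. Counts were taken on 4× images of lung cancer cell lines in 1536-well plates, 5 days after pin-tool dosing the day after seeding with one drug alone or a fixed anchor-drug dose plus five library-drug doses (not always all listed) in √10 steps.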

EKVX = system: EKVX
Method in brief: as §1

NCI-H2087 = system: NCI-H2087
Method in brief: as §1

NCI-H1395 = system: NCI-H1395
Method in brief: as §1

NCI-H2009 = system: NCI-H2009
Method in brief: as §1

NCI-H1734 = system: NCI-H1734
Method in brief: as §1

NCI-H2228 = system: NCI-H2228
Method in brief: as §1

HCC-366 = system: HCC-366
Method in brief: as §1

NCI-H1355 = system: NCI-H1355
Method in brief: as §1

BEN = system: BEN
Method in brief: as §1

HCC-827 = system: HCC-827
Method in brief: as §1

SK-LU-1 = system: SK-LU-1
Method in brief: as §1

NCI-H2405 = system: NCI-H2405
Method in brief: as §1

HARA = system: HARA
Method in brief: as §1

NCI-H661 = system: NCI-H661
Method in brief: as §1

NCI-H596 = system: NCI-H596
Method in brief: as §1

NCI-H647 = system: NCI-H647
Method in brief: as §1

SK-MES-1 = system: SK-MES-1
Method in brief: as §1

NCI-H2342 = system: NCI-H2342
Method in brief: as §1

NCI-H1437 = system: NCI-H1437
Method in brief: as §1

LC-2-ad = system: LC-2-ad
Method in brief: as §1

LOU-NH91 = system: LOU-NH91
Method in brief: as §1

In the case of `CC1(C)CCC(c2ccc(Cl)cc2)=C(CN2CCN(c3ccc(C(=O)NS(=O)(=O)c4ccc(N[C@H](CCN5CCOCC5)CSc5ccccc5)c(S(=O)(=O)C(F)(F)F)c4)cc3)CC2)C1` [Navitoclax] + COc1cc2c(Oc3ccc(NC(=O)C4(C(=O)Nc5ccc(F)cc5)CC4)cc3F)ccnc2cc1OCCCN1CCOCC1 [Foretinib] (partner 0.25 µM), the relative viability (NCI-H2170; first compound 0.005 µM) is reported as 0.969, the relative viability (NCI-H2170; first compound 0.01581 µM) is reported as 1.02 and the relative viability (NCI-H2170; first compound 0.05 µM) is reported as 1.08. It also gave a relative viability (NCI-H2170; first compound 0.1581 µM) of 1.07, a relative viability (NCI-H2170; first compound 0.5 µM) of 0.955 and a relative viability (EKVX; first compound 0.005 µM) of 1.02. The relative viability (EKVX; first compound 0.01581 µM) was 1.01, the relative viability (EKVX; first compound 0.05 µM) was 0.544 and the relative viability (EKVX; first compound 0.1581 µM) was 0.8. The relative viability (EKVX; first compound 0.5 µM) was 0.629, the relative viability (NCI-H2087; first compound 0.005 µM) was 1.07 and the relative viability (NCI-H2087; first compound 0.01581 µM) was 1.08. It also gave a relative viability (NCI-H2087; first compound 0.1581 µM) of 0.953, a relative viability (NCI-H2087; first compound 0.5 µM) of 1.07 and a relative viability (NCI-H1395; first compound 0.005 µM) of 1.15. The relative viability (NCI-H1395; first compound 0.01581 µM) was 1.19, the relative viability (NCI-H1395; first compound 0.05 µM) was 0.865 and the relative viability (NCI-H1395; first compound 0.1581 µM) was 0.986. For the same compound, the relative viability (NCI-H1395; first compound 0.5 µM) was 1.12, the relative viability (NCI-H2009; first compound 0.005 µM) was 1.22 and the relative viability (NCI-H2009; first compound 0.01581 µM) was 1.29. It also gave a relative viability (NCI-H2009; first compound 0.05 µM) of 1.26, a relative viability (NCI-H2009; first compound 0.1581 µM) of 1.26 and a relative viability (NCI-H2009; first compound 0.5 µM) of 1.27. It also gave a relative viability (NCI-H1734; first compound 0.005 µM) of 0.887, a relative viability (NCI-H1734; first compound 0.01581 µM) of 0.941 and a relative viability (NCI-H1734; first compound 0.1581 µM) of 0.831. For the same compound, the relative viability (NCI-H1734; first compound 0.5 µM) was 0.906, the relative viability (NCI-H2228; first compound 0.005 µM) was 0.727 and the relative viability (NCI-H2228; first compound 0.01581 µM) was 1.04. The relative viability (NCI-H2228; first compound 0.1581 µM) was 1.01, the relative viability (NCI-H2228; first compound 0.5 µM) was 0.85 and the relative viability (HCC-366; first compound 0.005 µM) was 0.98. The relative viability (HCC-366; first compound 0.01581 µM) was 0.82, the relative viability (HCC-366; first compound 0.1581 µM) was 1 and the relative viability (HCC-366; first compound 0.5 µM) was 0.982. The relative viability (NCI-H1355; first compound 0.005 µM) was 0.993, the relative viability (NCI-H1355; first compound 0.01581 µM) was 0.951 and the relative viability (NCI-H1355; first compound 0.05 µM) was 0.939. It also gave a relative viability (NCI-H1355; first compound 0.1581 µM) of 0.941, a relative viability (NCI-H1355; first compound 0.5 µM) of 0.965 and a relative viability (BEN; first compound 0.005 µM) of 0.69. For the same compound, the relative viability (BEN; first compound 0.01581 µM) was 0.664, the relative viability (BEN; first compound 0.05 µM) was 0.604 and the relative viability (BEN; first compound 0.1581 µM) was 0.719. The relative viability (BEN; first compound 0.5 µM) was 0.114, the relative viability (HCC-827; first compound 0.005 µM) was 0.914 and the relative viability (HCC-827; first compound 0.01581 µM) was 1.05. The relative viability (HCC-827; first compound 0.05 µM) was 0.832, the relative viability (HCC-827; first compound 0.1581 µM) was 1.03 and the relative viability (HCC-827; first compound 0.5 µM) was 1.01. The relative viability (SK-LU-1; first compound 0.005 µM) was 0.928, the relative viability (SK-LU-1; first compound 0.01581 µM) was 0.954 and the relative viability (SK-LU-1; first compound 0.05 µM) was 0.953. For the same compound, the relative viability (SK-LU-1; first compound 0.1581 µM) was 0.772, the relative viability (SK-LU-1; first compound 0.5 µM) was 0.741 and the relative viability (NCI-H2405; first compound 0.005 µM) was 1.04. The relative viability (NCI-H2405; first compound 0.01581 µM) was 1.09, the relative viability (NCI-H2405; first compound 0.05 µM) was 0.998 and the relative viability (NCI-H2405; first compound 0.1581 µM) was 1.04. The relative viability (NCI-H2405; first compound 0.5 µM) was 1.05, the relative viability (HARA; first compound 0.005 µM) was 0.923 and the relative viability (HARA; first compound 0.01581 µM) was 1.05. It also gave a relative viability (HARA; first compound 0.1581 µM) of 0.877, a relative viability (HARA; first compound 0.5 µM) of 0.863 and a relative viability (NCI-H661; first compound 0.005 µM) of 0.984. The relative viability (NCI-H661; first compound 0.01581 µM) was 1.06, the relative viability (NCI-H661; first compound 0.05 µM) was 0.87 and the relative viability (NCI-H661; first compound 0.1581 µM) was 0.988. It also gave a relative viability (NCI-H661; first compound 0.5 µM) of 1, a relative viability (NCI-H596; first compound 0.005 µM) of 1.08 and a relative viability (NCI-H596; first compound 0.01581 µM) of 0.853. The relative viability (NCI-H596; first compound 0.1581 µM) was 0.839, the relative viability (NCI-H596; first compound 0.5 µM) was 0.917 and the relative viability (NCI-H647; first compound 0.005 µM) was 1.22. The relative viability (NCI-H647; first compound 0.01581 µM) was 1.38, the relative viability (NCI-H647; first compound 0.05 µM) was 1.27 and the relative viability (NCI-H647; first compound 0.1581 µM) was 1.24. It also gave a relative viability (NCI-H647; first compound 0.5 µM) of 1.27, a relative viability (SK-MES-1; first compound 0.005 µM) of 0.817 and a relative viability (SK-MES-1; first compound 0.01581 µM) of 1.09. It also gave a relative viability (SK-MES-1; first compound 0.05 µM) of 0.916, a relative viability (SK-MES-1; first compound 0.1581 µM) of 0.895 and a relative viability (SK-MES-1; first compound 0.5 µM) of 1.04. It also gave a relative viability (NCI-H2342; first compound 0.005 µM) of 1.19, a relative viability (NCI-H2342; first compound 0.01581 µM) of 1.22 and a relative viability (NCI-H2342; first compound 0.05 µM) of 0.871. The relative viability (NCI-H2342; first compound 0.1581 µM) was 1.1, the relative viability (NCI-H2342; first compound 0.5 µM) was 1.16 and the relative viability (NCI-H1437; first compound 0.005 µM) was 1.18. For the same compound, the relative viability (NCI-H1437; first compound 0.01581 µM) was 1.3, the relative viability (NCI-H1437; first compound 0.05 µM) was 1.1 and the relative viability (NCI-H1437; first compound 0.1581 µM) was 1.31. It also gave a relative viability (NCI-H1437; first compound 0.5 µM) of 1.27, a relative viability (LC-2-ad; first compound 0.005 µM) of 0.837 and a relative viability (LC-2-ad; first compound 0.01581 µM) of 1.29. For the same compound, the relative viability (LC-2-ad; first compound 0.05 µM) was 1.02, the relative viability (LC-2-ad; first compound 0.1581 µM) was 0.871 and the relative viability (LC-2-ad; first compound 0.5 µM) was 0.887. For the same compound, the relative viability (LOU-NH91; first compound 0.005 µM) was 0.955, the relative viability (LOU-NH91; first compound 0.01581 µM) was 0.932 and the relative viability (LOU-NH91; first compound 0.05 µM) was 0.941. The relative viability (LOU-NH91; first compound 0.1581 µM) was 0.911 and the relative viability (LOU-NH91; first compound 0.5 µM) was 0.824.
